From patent publication US8772348B2, “Materials and methods for pest control” (priority 2009, dated 2014)
Read-outs that look alike come from different tables or passages of the source.

Columns and labels:
[1] = test system: Field-collected Musca domestica
Method: Briefly, one Musca domestica strain is collected from the University of Florida dairy unit in Alachua County, Florida, U.S.A. (“the Alachua strain”). The other Musca domestica strain is collected from a dairy farm in Gilchrist County, Florida, U.S.A. (“the Gilchrist strain”). Both strains are colonized adults, and are subsequently reared at 27° C. in the laboratory of the Entomology and Nematology Department, University of Florida.
The positive control is exposed to serial dilutions of permethrin. The negative control is not exposed to any chemical compound. 1 mL of insecticide was dissolved in acetone (concentrations between 0.5 and 20 mg mL^−1) in a 60 mL glass jar having a 67.86 cm^2 inside surface area (Wheaton, Millville, N.J.). Jars were allowed to dry for 1 h prior to fly introduction. Flies were held in jars for 2, 4 and 24 h, and fly mortality rate was scored at that time. Sugar water (10%) was provided in all assays, unless stated otherwise. The mortality rate is measured after a 2-hour, 4-hour, and 24-hour period. Ataxic flies are considered dead. The mortality rate and the LC values are determined using the same procedures as is illustrated in Example 2.

[2] = test system: Field-collected Musca domestica; conditions: for % mortality: formulation on plywood panels, 3.33 mg/cm^2 (footnote 1.67)
Method: Briefly, one Musca domestica strain and one other Musca domestica strain are obtained as is illustrated in Example 3. Each fly strain is divided into seven sets: three sets as the experiment, three sets as the positive control, and one set as the negative control. Flies are assayed on unpainted plywood panel boards that have been previously exposed to natural summer weather conditions for at least 10 days. […] The formulation is applied at a uniform rate of 7.5 ml per 225 cm^2, sufficient to cover the entire panel without dripping. Subsequently, the treated panel boards are dried for about an hour.
In each set, 20 adult flies are placed onto panel boards. Flies are secured with wooden embroidery hoops, covered with a coarse mesh screen cloth previously sprayed with the respective formulation. After 4 hours, flies are transferred into a clean jar. The mortality rate is measured 24 hours after the transfer, and is determined using the same procedures as are illustrated in Example 2.
Plywood panels (225 cm^2) were treated with chemicals at a rate of 1.67 mg cm^−2. Panels were treated on day 0 and was held until exposure on post-treatment day. Mosquitoes were exposed to chemicals for 2 h, and mortality rate was assessed 24 h after initial exposure. Control contained formulation ingredients without semiochemicals.

[3] = test system: Susceptible Musca domestica; assay: Glass jar contact bioassay, susceptible (laboratory) house flies; conditions: for decline in toxicity after a 24-hour holding period subsequent to an initial 2-hour exposure: 2 h transferred vs 2 h constant
Method: Briefly, adult house flies, Musca domestica, are obtained from strains that have been reared in the laboratory of the Entomology and Nematology Department, University of Florida. […] The positive control is exposed to serial dilutions of permethrin. The negative control is not exposed to any chemical compound. The mortality rate is measured after 2-hour, 4-hour, and 24-hour periods. Ataxic flies are considered dead.
The ability of house flies to recover from insecticidal exposure is also investigated. After a 2-hour exposure, each set of flies is transferred into a separate glass jar. The mortality rate is measured at two time intervals: first, immediately at the transfer (2 hours after the initial exposure), and second, 22 hours after the transfer (24 hours after the initial exposure).
The mortality rate is analyzed using the PROBIT model. The data is adjusted based on the mortality rate in the control set using the Abbott's transformation, and the percent mortality is further analyzed based on ANOVA measurement. The experiment is repeated at least three times. The data is discarded if the mortality rate in the control set exceeds 10%. The LC50 and LC90 values are further determined using the SAS (Cary, N.C., USA) statistical software. For each chemical compound, at least 1280 flies are examined.

[4] = test system: Susceptible Musca domestica; assay: Contact bioassay of emulsified concentrate formulations on filter paper discs; conditions: EC formulation on filter paper
Method: A commercially-available permethrin 57 g L^−1 EC (Ectiban EC 57; Universal Cooperatives, Minneapolis, Minn.) was included for comparison. Except rosalva, the 50% EC semiochemical formulations were generated by combining 500 mL AI, 430 mL canola oil (Publix, Lakeland, Fla.), 10 mL xylene, 50 mL Triton X-100 (Acros Organics Nev., Fair Lawn, N.J.) and 10 mL Agsolex-8 (International Specialty Products, Wayne, N.J.). The rosalva formulation contained all of the above-mentioned ingredients, with canola oil concentration reduced to 400 mL L^−1, Triton X-100 concentration increased to 75 mL L^−1, and 5 mL L^−1 Antifoam B silicone emulsion (Mallinckrodt Baker, Phillipsburg, N.Y.) included.
Briefly, Whatman No. 1 filter paper discs (63.58 cm^2) are impregnated with 1.5 ml serially diluted formulations in 20 emulsified concentrates and 50 emulsified concentrates, respectively, and subsequently dried for about an hour. Then, house flies are divided into seven sets: three sets as the experiment, three sets as the positive control, and one set as the negative control. Each set consists of twenty six-to-ten-day old adult flies. […] The positive control set is exposed to paper discs impregnated with geranyl acetone, rosalva or citronellol. The negative control set is exposed to paper discs impregnated with acetone solution. Throughout the exposure periods, each set is provided with 10% sucrose solution and sufficient air circulation. Ataxic flies are considered dead. The mortality rate and the LC values are determined using the same procedures as is illustrated in Example 2.

[5] = test system: Susceptible Musca domestica; conditions: for % mortality on various days following treatment: formulation on filter paper at LC99-based concentration of each compound
Method: Briefly, after Musca domestica is exposed to formulations for 24 hours at the LC99 concentration specific for each compound, each set of flies is transferred into a separate glass jar, and held for another 24 hours when mortality is scored. The mortality rate is measured on multiple days with new sets of flies up to 14 days (Day 1 starts at 24 hours after the transfer). The mortality rate is determined using the same procedures as is illustrated in Example 2.
Concentrations were generated from technical-based LC99 values obtained following a 24 h-exposure period on filter paper. Paper was treated on day 0 and was held until exposure on post-treatment day. Control contained formulation ingredients without semiochemicals.

[6] = Alachua strain, 2 h constant exposure
[7] = Alachua strain, 4 h constant exposure
[8] = Alachua strain, 24 h constant exposure
[9] = Gilchrist strain, 2 h constant exposure
[10] = Gilchrist strain, 4 h constant exposure
[11] = Gilchrist strain, 24 h constant exposure
[12] = 2 h constant exposure, glass jar
[13] = 2 h exposure, transferred to clean jars, mortality 24 h after initial exposure
[14] = 4 h constant exposure, glass jar

CC1(C)CCCC2=C1CC(C=O)CC2 (stereo not shown) [Cyclemone A, 2-naphthaldehyde, 1,2,3,4,5,6,7,8-octahydro-8,8-dimethyl]
LC50 [1, 6]: 54.46 μg cm^−2
LC90 [1, 6]: 74.41 μg cm^−2
LC50 [1, 7]: 52.60 μg cm^−2
LC90 [1, 7]: 69.96 μg cm^−2
LC50 [1, 8]: 32.29 μg cm^−2
LC90 [1, 8]: 51.09 μg cm^−2
LC50 [1, 9]: 54.11 μg cm^−2
LC90 [1, 9]: 72.60 μg cm^−2
LC50 [1, 10]: 46.52 μg cm^−2
LC90 [1, 10]: 79.28 μg cm^−2
LC50 [1, 11]: 32.32 μg cm^−2
LC90 [1, 11]: 51.58 μg cm^−2
% mortality ([2]; Alachua strain): 100.00a %
% mortality ([2]; Gilchrist strain): 95.00a %
LC50 [3, 12]: 48.24 μg cm^−2
LC90 [3, 12]: 69.90 μg cm^−2
LC50 [3, 13]: 47.29 μg cm^−2
LC90 [3, 13]: 68.95 μg cm^−2
decline in toxicity after a 24-hour holding period subsequent to an initial 2-hour exposure [3]: no decline in toxicity
LC50 [3, 14]: 44.52 μg cm^−2
LC90 [3, 14]: 71.44 μg cm^−2
mortality rate ([3]; after 24-hour exposure): ~100%
LC50 ([4]; 24 h constant exposure): 468.96 μg cm^−2
LC90 ([4]; 24 h constant exposure): 759.00 μg cm^−2
LC50 ([4]; 48 h constant exposure): 440.04 μg cm^−2
LC90 ([4]; 48 h constant exposure): 659.92 μg cm^−2
mortality rate ([5]; Day 1 and Day 2): 99%
% mortality on various days following treatment ([5]; day 1): 96.25a %
% mortality on various days following treatment ([5]; day 2): 90.00a %
% mortality on various days following treatment ([5]; day 3): 80.00a %
% mortality on various days following treatment ([5]; day 5): 77.50ab %
% mortality on various days following treatment ([5]; day 7): 78.75a %
% mortality on various days following treatment ([5]; day 8): 63.75a %
% mortality on various days following treatment ([5]; day 14): 6.25ab %

C/C=C/C(=O)C1=C(C)CCCC1(C)C [Beta damascone, beta damascone]
LC90 [1, 6]: 136.39 μg cm^−2
LC90 [1, 7]: 124.69 μg cm^−2
LC90 [1, 8]: 47.00 μg cm^−2
LC90 [1, 9]: 126.00 μg cm^−2
LC90 [1, 10]: 70.59 μg cm^−2
LC90 [1, 11]: 56.21 μg cm^−2
mortality rate ([2]; in vivo): 95.0-100.0%
LC90 [3, 12]: 78.46 μg cm^−2
LC90 [3, 13]: 74.63 μg cm^−2
decline in toxicity after a 24-hour holding period subsequent to an initial 2-hour exposure [3]: no decline in toxicity
LC90 [3, 14]: 53.59 μg cm^−2
mortality rate ([3]; in vivo): ~100%
LC90 ([4]; 24 h constant exposure): 618.12 μg cm^−2
LC90 ([4]; 48 h constant exposure): 516.16 μg cm^−2
mortality rate ([5]; in vivo): 99%
